Experimental data reported in patent US6713500B2, “Agent for controlling animal diseases caused by parasites” (Ishihara Sangyo Kaisha Ltd., priority 1999, dated 2004).
Where two headings read alike, the source gives them in different places.

Tested on: Eimeria tenella of wild type (fresh immature oocysts)
Assay: microbe, parasite or virus in culture
Format: cell-based
Details: read-out: Mortality of oocysts (%)
Experimental: Chicks were infested with Eimeria tenella of wild type to obtain fresh immature oocycts. The obtained fresh immature oocysts were exposed to a solution of each test substance having a predetermined concentration for 10 or 30 minutes. The exposed immature oocysts were centrifuged at 1500 min^−1 for 5 minutes, and the supernatant was removed. Then, a 2% potassium bichromate aqueous solution was added, and sporulation was carried out at 25° C. for 4 days, whereupon the ratio of mature oocysts (sporulated oocysts) to the number of observed oocysts, was calculated.
Mortality of oocysts={1−(sporulation rate with exposure to test substance)/(sporulation rate without exposure to test substance)}×100

| SMILES | mortality at 0.1 ppm (10 min) [%] | mortality at 1 ppm (10 min) [%] | mortality at 10 ppm (10 min) [%] | mortality at 0.1 ppm (0.5 h) [%] | mortality at 1 ppm (0.5 h) [%] | mortality at 10 ppm (0.5 h) [%] | mortality at 0.1 ppm (10 min, Exposure time: 10 min, 0.1 ppm) [%] | mortality at 1 ppm (10 min, Exposure time: 10 min, 1 ppm) [%] | mortality at 10 ppm (10 min, Exposure time: 10 min, 10 ppm) [%] | mortality at 0.1 ppm (0.5 h, Exposure time: 30 min, 0.1 ppm) [%] | mortality at 1 ppm (0.5 h, Exposure time: 30 min, 1 ppm) [%] | mortality at 10 ppm (0.5 h, Exposure time: 30 min, 10 ppm) [%] |
| --- | --- | --- | --- | --- | --- | --- | --- | --- | --- | --- | --- | --- |
| Cc1ccc(-c2c(Cl)nc(C#N)n2S(=O)(=O)N(C)C)cc1 [compound 1, 4-chloro-2-cyano-1-dimethylsulfamoyl-5-(4-methylphenyl)imidazole] | 43.8 | 36.9 | 42.5 | 51.1 | 80.3 | 87.9 |  |  |  |  |  |  |
| CCc1ccc(C(F)c2c(Cl)nc(C#N)n2S(=O)(=O)N(C)C)cc1 (stereo not drawn) [compound 5, 4-chloro-2-cyano-1-dimethylsulfamoyl-5-(4-ethyl-α-fluorobenzyl)imidazole] |  |  |  |  |  |  | 34.4 | 30 | 75 | 71.3 | 75.2 | 72.6 |
